# In ChEMBL document CHEMBL1136832, “Synthesis of 7-chloro-2,3-dihydro-2-[1-(pyridinyl)alkyl]-pyridazino[4,5-b]quinoline-1,4,10(5H)-triones as NMDA glycine-site antagonists” (Bioorg Med Chem Lett, 2003):
# Tests used:
# [1] = biological target: Glutamate NMDA receptor; type: cell membranes, Membrane
# Description: Affinity for glycine site of NMDA receptor on rat brain membranes by displacement of [3H]- MDL 105,519.
# [2] = tested on: Caco-2; settings: Homo sapiens
# Description: Cellular permeability in Caco-2 cells.
# [3] = physchem; settings: buffer, pH 7.4
# [4] = Oral bioavailability in rat; settings: in vivo
Structure (SMILES),Ki [1] [µM],Permeability [2],solubility [3] [µg/mL],bioavailability [4] [%]
CS(=O)(=O)O.O=c1[nH]n(C(c2ccccn2)C2CCCC2)c(=O)c2c(O)c3ccc(Cl)cc3nc12 (stereo not drawn),> 10,5.6e-06,> 170,
CC(C)CC(c1ccncc1)n1[nH]c(=O)c2nc3cc(Cl)ccc3c(O)c2c1=O.CS(=O)(=O)O (stereo not drawn),5.23,1.1e-05,> 170,
CC(c1cc[n+]([O-])cc1)n1[nH]c(=O)c2nc3cc(Cl)ccc3c(O)c2c1=O (stereo not drawn),2.42,,,
O=c1[nH]n(Cc2cc[n+]([O-])cc2)c(=O)c2c(O)c3ccc(Cl)cc3nc12,0.439,5e-07,> 160,
CC(C)CC(c1ccccn1)n1[nH]c(=O)c2nc3cc(Cl)ccc3c(O)c2c1=O.CS(=O)(=O)O (stereo not drawn),> 10,9.1e-06,> 130,
CCCC(c1ccncc1)n1[nH]c(=O)c2nc3cc(Cl)ccc3c(O)c2c1=O.CS(=O)(=O)O (stereo not drawn),4.34,1.6e-05,> 220,
CS(=O)(=O)O.O=c1[nH]n(C(c2ccccc2)c2ccncc2)c(=O)c2c(O)c3ccc(Cl)cc3nc12 (stereo not drawn),> 10,4e-06,130,
CS(=O)(=O)O.O=c1[nH]n(C(c2ccccn2)C2CC2)c(=O)c2c(O)c3ccc(Cl)cc3nc12 (stereo not drawn),0.996,9.8e-06,490,
CCCCC(c1ccccn1)n1[nH]c(=O)c2nc3cc(Cl)ccc3c(O)c2c1=O.CS(=O)(=O)O (stereo not drawn),> 10,1.6e-05,> 220,
O=c1[nH]n(Cc2ccncc2)c(=O)c2c(=O)c3ccc(Cl)cc3[nH]c12,,2e-07,,5
CC(c1ccncc1)n1[nH]c(=O)c2[nH]c3cc(Cl)ccc3c(=O)c2c1=O.CS(=O)(=O)O (stereo not drawn),,5.8e-06,,30
CCC(c1ccncc1)n1[nH]c(=O)c2[nH]c3cc(Cl)ccc3c(=O)c2c1=O.CS(=O)(=O)O (stereo not drawn),,1.1e-05,> 200,17
CCC(c1ccccn1)n1[nH]c(=O)c2nc3cc(Cl)ccc3c(O)c2c1=O (stereo not drawn),2.36,,,
